77 compounds from ChEMBL document CHEMBL4513101, “Naegleria gruberi Pathogen Box compounds screening” (2021) can be followed below.

The source made the active and inactive calls. Rule as the data show it: active = inhibition of 80% or more and inactive = less.

In this assay the test system is Naegleria gruberi. Kind of assay: microbe, parasite or virus in culture. In kind it is functional. The settings on record: NEG-M, CONC 10 uM.
Description: Growth inhibiting activity of Naegleria gruberi in vitro
In the case of `NC(=O)c1cc(Br)ccc1OCCOc1ccccc1`, the inhibition at 10 µM is on record as 36.1% (not active). The same measure for `Cc1ccc(C(=O)Nc2ccc(S(=O)(=O)O)c3cc(S(=O)(=O)O)cc(S(=O)(=O)O)c23)cc1NC(=O)c1cccc(NC(=O)Nc2cccc(C(=O)Nc3cc(C(=O)Nc4ccc(S(=O)(=O)O)c5cc(S(=O)(=O)O)cc(S(=O)(=O)O)c45)ccc3C)c2)c1` [SURAMIN]: 32% (not active). The value for `CS(=O)(=O)c1ccccc1C(=O)N(Cc1ccccc1)c1ccccc1` was 31.8% (not active); that for `O=C(Nc1nnc(-c2ccc(Cl)cc2)o1)c1cccc(C(F)(F)F)c1` was 19.7% (not active). The value for `Cc1nn(C(=O)Nc2cccc(C(F)(F)F)c2)c(C)c1Sc1ncccn1` was 16.7% (not active); that for `O=C(NCc1ccoc1)N1CCN(Cc2ccc3c(c2)OCO3)CC1` was 28.7% (not active); that for `Cc1ccc2nc(Cl)c(CNCc3cccs3)cc2c1` was 35.5% (not active). On to `COc1cccc(OC)c1C(=O)Nc1ccc(Cl)c(-c2nc3ccccc3s2)c1`, for which the inhibition at 10 µM is reported as 19.2% (not active). The same measure for `COC(=O)c1cccc2oc(-c3cccc(OC)c3NC(=O)c3cc(-c4ccccc4)on3)nc12`: 69.8% (not active); for `COc1ccc(-c2nnc3ccc(-c4cccc(C(C)C)c4)cn23)cc1OC`: 26.7% (not active). The value for `CS(=O)(=O)Cc1nc2ccccc2oc1=O` was 38.8% (not active); that for `Nc1ncnc2c1ncn2[C@@H]1O[C@H](COS(=O)(=O)NC(=O)c2ccccc2O)[C@@H](O)[C@H]1O` was 14.5% (not active). The same measure for `O=C(Nc1cccnc1)c1c(O)c2cccc3c2n(c1=O)CC3`: 40.3% (not active); for `N=C(N)Nc1ccc(-c2ccc(-c3ccc(NC(=N)N)cc3Cl)o2)c(Cl)c1`: 24% (not active); for `O=C1COCc2ccc(Br)cc2N1Cc1ccc(C(F)(F)F)cc1`: 26.7% (not active).

Regarding `CC[C@H](CO)NCCN[C@H](CC)CO`, the inhibition at 10 µM was 26.7% (not active). The value for `COc1ccc2nc(C)cc(OCC(=O)Nc3ccccc3OC)c2c1` was 34.9% (not active); that for `COc1ccc(S(=O)(=O)Nc2ccc(CN3CCN(C(=O)c4cccc(C#N)c4)CC3)cc2)cc1` was 18.8% (not active). The value for `Nc1ccc(C(=O)Nc2ccc(-c3nc4ccccc4o3)cc2)cc1` was 6.1% (not active). Consider `CCC(C)NC(=O)c1ccc(NC(=O)C2(c3ccccc3)CCCC2)cc1` (configuration not stated), for which the inhibition at 10 µM is listed as 0.4% (not active). Take `CC(C(=O)Nc1ccc2oc(-c3ccncc3)nc2c1)c1ccccc1` (configuration not stated): the inhibition at 10 µM was 48.6% (not active).

Consider `Cc1ccc2cc(C3NC(=O)c4ccccc4N3)c(Cl)nc2c1` (configuration not stated), for which the inhibition at 10 µM was 46.1% (not active). Take `C[C@]1(O)C[C@@H](c2nc(-c3ccc4ccc(-c5ccccc5)nc4c3)c3c(N)nccn32)C1` [LINSITINIB]: the inhibition at 10 µM is on record as 59.4% (not active). The value for `O=C(NC1CCCCC1)N1CCN(Cc2ccc3c(c2)OCO3)CC1` was 31.3% (not active). `O=C(NC1CC1)c1ccc(N2CCC(Cc3ccccc3)CC2)nc1`: the inhibition at 10 µM is reported as 59.1% (not active). The value for `c1ccc(Oc2ccc(-c3cc(C4CCOCC4)[nH]n3)cc2)cc1` was 34.2% (not active); that for `COc1cncc(-c2cncc(N3CCN(c4ccncc4)CC3)n2)c1` was 26.8% (not active). Consider `Cc1ccc2c(c1C)NC(=O)C21NN=C(c2ccccc2)S1` (configuration not stated), for which the inhibition at 10 µM is on record as 20.7% (not active).

`COc1cc(C2=NCCN2)ccc1-n1cc(-c2cccc(C3=NCCN3)c2)nn1`: the inhibition at 10 µM was 16.2% (not active).

Consider `O=C(Nc1c(O)cccc1-c1nc2c(C(=O)O)cccc2o1)c1cc(-c2ccccc2)on1`, for which the inhibition at 10 µM is listed as 18.4% (not active). The value for `COc1cc2ncnc(NC3CCN(Cc4ccccc4)CC3)c2cc1OC` was 13.6% (not active); that for `Cc1cc(C2=NOC(c3cc(Cl)c(F)c(Cl)c3)(C(F)(F)F)C2)ccc1C(=O)NCc1ccc2c(c1)C(C)(C)OB2O` (configuration not stated) was 47.6% (not active).

Take `COc1cccc(-c2nc3c(N4CCCC4)cccc3n2CC2CCCN2)n1` (configuration not stated): the inhibition at 10 µM is 51.5% (not active).

Consider `Clc1cccc(CO[C@H]2CCc3ccccc3[C@@H]2n2ccnn2)c1`, for which the inhibition at 10 µM is given as 12.6% (not active). The value for `COc1ccc(-c2cnc3ccc(NCc4ccc(S(N)(=O)=O)cc4)nn23)cn1` was 10.2% (not active). The value for `Cc1nn2c(=O)c3c([nH]c2c1-c1ccc(Cl)cc1)CCCC3` was 30.5% (not active); that for `CC(=O)N(CCN(C(=O)c1ccc(F)cc1)c1ccccc1)c1ccccc1` was 21.3% (not active); that for `O=C(NC1CC1)c1ccc(N2CCOc3ccc(Cl)cc32)s1` was 27.6% (not active). The value for `CNC(=O)C1Cc2c([nH]c3cc(Cl)ccc23)C2(CCN(CCc3ccccc3)CC2)N1` (configuration not stated) was 11.5% (not active); that for `CC[C@@H]([C@H](C)O)n1ncn(-c2ccc(N3CCN(c4ccc(OC[C@@H]5CO[C@@](Cn6cncn6)(c6ccc(F)cc6F)C5)cc4)CC3)cc2)c1=O` [POSACONAZOLE] was 84.8% (active); that for `Cc1cc(Nc2ccncc2)n2nc(C)c(-c3ccccc3Cl)c2n1` was 27.7% (not active). With `Nc1ncnc2c1c(Cc1cccc3ccccc13)nn2CC1CCNCC1`, the inhibition at 10 µM is 11.4% (not active).

As for `CCOc1ccc2cc(-c3nn(C(C)(C)C)c(N)c3C(N)=O)cnc2c1`, the inhibition at 10 µM was 92.5% (active). The value for `COc1ccc(OC)c(NCc2ccc3nc(N)nc(N)c3c2Cl)c1` was 33.6% (not active); that for `CCOc1ccccc1NC(C)C(=O)Nc1cc(C(F)(F)F)ccc1N1CCOCC1` (configuration not stated) was 20.8% (not active).

Regarding `CCCNC(=O)N1CCC2(CC1)CC(=O)c1cc(C)ccc1O2`, the inhibition at 10 µM is recorded as 11.6% (not active). The value for `O=C(Nc1ccccc1-c1nc2c(C(=O)O)cccc2o1)c1ccccc1` was 39.5% (not active); that for `Clc1cccc(C(c2ccc(CN3CCNCC3)cc2)n2ccnc2)c1` (configuration not stated) was 20.3% (not active).

With `O=C(c1ccc(NCCO)cc1)C1C[C@H]1c1ccc(Cl)cc1` (some centres not stated), the inhibition at 10 µM is 28.7% (not active). As to `CO/N=C(\C(=O)OC)c1ccccc1CO/N=C(\C)c1cccc(C(F)(F)F)c1`, the inhibition at 10 µM is 43.9% (not active). The value for `COc1cc(NC(=O)Cc2nn(C)c(=O)c3ccccc23)ccc1Cl` was 90.7% (active); that for `c1ccc(-c2nc(NC3CCCCC3)cc(C3CC3)n2)nc1` was 23.7% (not active); that for `CC(Oc1ccccc1)C(=O)Nc1nc(-c2ccccn2)cs1` (configuration not stated) was 32.3% (not active). The value for `Cc1cccc(NC(=O)c2cc(S(=O)(=O)N(C)c3ccc(F)cc3)ccc2Cl)n1` was 42.3% (not active).

For the compound `Cn1ncc2c(N3CCOCC3)nc(NCCc3c[nH]c4ccccc34)nc21` [TDR79432], the inhibition at 10 µM is listed as 45.9% (not active). The same measure for `COc1ccc(-c2cnc3cnc(-c4cccc(OC(C)C)c4)cn23)cc1`: 9.4% (not active).

As to `CC(C)(C)OC(=O)N1CCN(c2cc(-c3ccc(Oc4ccccc4)cc3)n[nH]2)CC1`, the inhibition at 10 µM was 65.7% (not active). The same measure for `CCc1nc2ccc(C(=O)NCc3ccc4c(c3)OCO4)cn2c1N(C)Cc1cccs1`: 36% (not active).

Regarding `CC(C)(C)n1nc(-c2ccccc2)c2c(N)ncnc21`, the inhibition at 10 µM is on record as 55.1% (not active). The value for `COc1ccc(Cl)cc1NC(=O)CN(C)C(=O)c1cnn(-c2ccccc2)n1` was 37.1% (not active). The same measure for `O=C(COc1cccc(F)c1)Nc1nc(-c2ccccn2)cs1`: 24.2% (not active); for `Cc1nc(-c2ccccn2)nc(N(C)CCc2ccccc2)c1Cl`: 21.1% (not active). The same measure for `O=C(Nc1ccc(C(F)(F)F)c(C(F)(F)F)c1)c1cc(Cl)ccc1O`: 98.5% (active); for `O=C(NC1CC1)c1ccc(CSCc2ccccc2Cl)o1`: 5.6% (not active). Take `c1ccc(Oc2ccc(-c3cc(N4CCNCC4)[nH]n3)cc2)cc1`: the inhibition at 10 µM is 0% (not active). The same measure for `Cc1ccc2[nH]c3c(NCCN(C)C)ncnc3c2c1`: 23.7% (not active); for `COc1cc(C(F)(F)F)nc2ccc(C)c(N)c12`: 2.1% (not active). The same measure for `O=C(Nc1ccc(N2CCNCC2)nc1)c1oc(-c2ccccc2)nc1C(F)(F)F`: 15.4% (not active).

`O=C(NCCc1c[nH]c2ccccc12)c1cc2ccccc2oc1=O`: the inhibition at 10 µM is 33.7% (not active). The value for `Cc1noc(C)c1COc1cccc(C(=O)N=c2[nH]cccc2C)c1` was 36.7% (not active); that for `CCCc1ccc(S(=O)(=O)Nc2ccc(CN3CCN(CC4CC4)CC3)cc2)cc1` was 30.3% (not active). The value for `COc1ccc(-c2cc(NC(=O)c3ccc(F)cc3Cl)ccc2OC)cc1` was 38.4% (not active); that for `C[C@@H]1[C@H](O)[C@@H](C)/C=C/C=C/C=C/C=C/C=C/C=C/C=C/[C@H](O[C@@H]2O[C@H](C)[C@@H](O)[C@H](N)[C@@H]2O)C[C@@H]2O[C@](O)(C[C@@H](O)C[C@@H](O)[C@H](O)CC[C@@H](O)C[C@@H](O)CC(=O)O[C@H]1C)C[C@H](O)[C@H]2C(=O)O` [AMPHOTERICIN B] was 2.4% (not active).

In the case of `CC(C)(CN)c1nc(-c2ccc(Cl)c(O)c2)c(-c2ccnc(N)n2)[nH]1`, the inhibition at 10 µM is 6.4% (not active). As to `COc1ccc(C2=NN(C3CCCCCC3)C(=O)C2(C)C)cc1OCCCCOc1ccc(-c2nn[nH]n2)cc1`, the inhibition at 10 µM is reported as 36.8% (not active). The same measure for `C[C@H](c1ccc2c(c1)CCCC2)N(C)c1ncc2c(N)nc(N)nc2n1`: 29.6% (not active).

`CN1CCC(NCc2cccc(-c3ccc(S(=O)(=O)NCc4ccccc4)cc3)c2)CC1`: the inhibition at 10 µM is on record as 14.4% (not active).

As a reminder, the inhibition is the percentage by which the read-out fell short of the control.
